Test results from patent publication US9975881B2, “Compound” (ASTRAZENECA AB, priority 2011, dated 2018).

Molecular target: T1, human CXCR2 (Homo sapiens, UniProt P25025)
T1 construct: expressed in transfected cells
T1 sequence (P25025 1-360): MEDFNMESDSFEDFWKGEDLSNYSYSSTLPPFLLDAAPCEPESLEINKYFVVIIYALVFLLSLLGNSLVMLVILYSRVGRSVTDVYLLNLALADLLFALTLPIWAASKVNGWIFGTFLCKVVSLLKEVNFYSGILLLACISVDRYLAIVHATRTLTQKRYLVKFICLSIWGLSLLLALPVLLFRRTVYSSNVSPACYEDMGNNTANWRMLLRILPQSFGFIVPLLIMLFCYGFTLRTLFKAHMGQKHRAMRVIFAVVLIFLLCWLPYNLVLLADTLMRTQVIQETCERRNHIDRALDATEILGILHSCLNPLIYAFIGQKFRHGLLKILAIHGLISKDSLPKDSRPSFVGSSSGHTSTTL
Experiment: Potency (pIC50) - ligand binding assay, Alexa647 IL-8 displacement from CXCR2 membranes
Settings: 50% reduction in specific Alexa647 IL-8 (1 nM) binding to HEK293 human CXCR2 membranes
Excerpt: Potency (pIC50)—Ligand Binding Assay
Human Embryonic Kidney 293 cells (HEK293 cells) from the American Type Culture Collection were transfected with human CXCR2 cDNA (RefSeqNM_001557), previously cloned into the eukaryotic expression vector pIRES-Neo2, (Clontech). Populations of Geneticin (Invitrogen)-resistant cells were selected for stable expression of CXCR2 and clones were generated by dilution cloning (0.3 cells/well) in 96-well tissue culture plates.
Cells of the highest expressing clone (Clone 6, identified by FACS analysis) were harvested, following 24 hour pre-treatment with 5 mM sodium butyrate, in 10 ml of ice-cold hypotonic buffer (20 mM HEPES, 1 mM EDTA, 0.1 mM DTT, 0.1 mM Phenyl Methyl Sulphonyl Fluoride and 0.1 mg/L Bacitracin, pH7.4) and left to swell for 10 min. Following centrifugation (200 g, 5 min, 4° C.), cells were resuspended in hypotonic buffer and membranes were prepared using a polytron tissue homogenizer (3×10 second treatments). […]
All assays were performed in black, 384-well plates (Greiner). […] Total binding of Alexa^647 IL-8 was determined in the absence of competing compound and non-specific binding of Alexa^647 IL-8 was determined in the presence of 0.3 μM 1-(4-chloro-2-hydroxy-3-sulfamoyl-phenyl)-3-(2,3-dichlorophenyl)urea. […]

- IC50: 3.98 nM
SMILES: CC1CN(S(=O)(=O)Nc2cc(O[C@H](C)[C@@H](O)CO)nc(SCc3ccc(F)cc3)n2)C1 [Example 1, N-(6-((2R,3S)-3,4-Dihydroxybutan-2-yloxy)-2-(4-fluorobenzylthio)pyrimidin-4-yl)-3-methylazetidine-1-sulfonamide]
